# Results reported in ChEMBL document CHEMBL1201862, “PubChem BioAssay data set” (2004).
#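 Following 48 hours of exposure in 96-well plates, responses at five concentrations were used to interpolate endpoints linearly. The concentration for 50% growth inhibition is given as GI50.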 Active and inactive are the calls of the source. Cut-off read from the data, not from the text of the source: active = GI50 up to about 1.1 µM and inactive = higher.
# Tests used:
# Experiment in all cases: growth of human tumour cells (NCI), 48 h
# [1] = tested on: IGROV-1
# [2] = tested on: MCF7
# [3] = tested on: RPMI-8226
# [4] = tested on: UACC-62
# [5] = tested on: NCI-H460
# [6] = tested on: COLO 205
# [7] = tested on: Hs-578T
# [8] = tested on: OVCAR-3
# [9] = tested on: LOX IMVI
# [10] = tested on: 786-0
# [11] = tested on: NCI/ADR-RES
# [12] = tested on: TK-10
# [13] = tested on: CCRF-CEM
# [14] = tested on: K562
# [15] = tested on: A549
# [16] = tested on: SF-295
# [17] = tested on: NCI-H522
# [18] = tested on: SNB-75
# [19] = tested on: HCT-15
# [20] = tested on: NCI-H226
# [21] = tested on: MDA-MB-435
# [22] = tested on: SK-OV-3
# [23] = tested on: RXF 393
# [24] = tested on: KM12
# [25] = tested on: DU-145
# [26] = tested on: M14
# [27] = tested on: HT-29
# [28] = tested on: HOP-92
# [29] = tested on: SR
# [30] = tested on: A498
# [31] = tested on: UACC-257
# [32] = tested on: HCC 2998
# [33] = tested on: HCT-116
# [34] = tested on: SK-MEL-5
# [35] = tested on: NCI-H23
# [36] = tested on: SF-539
# [37] = tested on: OVCAR-8
# [38] = tested on: ACHN
# [39] = tested on: HOP-62
# [40] = tested on: EKVX
# [41] = tested on: HL-60
# [42] = tested on: OVCAR-5
# [43] = tested on: UO-31
# [44] = tested on: SW-620
# [45] = tested on: SF-268
# [46] = tested on: T47D
# [47] = tested on: SN12C
# [48] = tested on: CAKI-1
# [49] = tested on: SK-MEL-28
# [50] = tested on: Malme-3M
# [51] = tested on: MDA-N
# [52] = tested on: PC-3
# [53] = tested on: U-251
# [54] = tested on: MOLT-4
# [55] = tested on: SNB-19
# [56] = tested on: OVCAR-4
# [57] = tested on: SK-MEL-2
# [58] = tested on: MDA-MB-231
compound,measurement,setting,value
CC(C)(C)OC(=O)N1N=CCC1c1ccccc1 (stereo unspecified),GI50,[1],> 100 µM (inactive)
same,GI50,[2],> 100 µM (inactive)
same,GI50,[3],> 100 µM (inactive)
same,GI50,[4],> 100 µM (inactive)
same,GI50,[5],> 100 µM (inactive)
same,GI50,[6],> 100 µM (inactive)
same,GI50,[7],> 100 µM (inactive)
same,GI50,[8],> 100 µM (inactive)
same,GI50,[9],> 100 µM (inactive)
same,GI50,[10],> 100 µM (inactive)
same,GI50,[11],> 100 µM (inactive)
same,GI50,[12],> 100 µM (inactive)
same,GI50,[13],56.2 µM (inactive)
same,GI50,[14],> 100 µM (inactive)
same,GI50,[15],> 100 µM (inactive)
same,GI50,[16],> 100 µM (inactive)
same,GI50,[17],> 100 µM (inactive)
same,GI50,[18],> 100 µM (inactive)
same,GI50,[19],> 100 µM
same,GI50,[20],> 100 µM (inactive)
same,GI50,[21],> 100 µM (inactive)
same,GI50,[22],> 100 µM (inactive)
same,GI50,[23],> 100 µM (inactive)
same,GI50,[24],> 100 µM (inactive)
same,GI50,[25],> 100 µM (inactive)
same,GI50,[26],> 100 µM (inactive)
same,GI50,[27],> 100 µM (inactive)
same,GI50,[28],> 100 µM (inactive)
same,GI50,[29],> 100 µM (inactive)
same,GI50,[30],> 100 µM (inactive)
same,GI50,[31],> 100 µM (inactive)
same,GI50,[32],> 100 µM (inactive)
same,GI50,[33],> 100 µM (inactive)
same,GI50,[34],> 100 µM (inactive)
same,GI50,[35],> 100 µM (inactive)
same,GI50,[36],> 100 µM (inactive)
same,GI50,[37],> 100 µM (inactive)
same,GI50,[38],> 100 µM (inactive)
same,GI50,[39],> 100 µM (inactive)
same,GI50,[40],> 100 µM (inactive)
same,GI50,[41],> 100 µM (inactive)
same,GI50,[42],> 100 µM (inactive)
same,GI50,[43],> 100 µM (inactive)
same,GI50,[44],> 100 µM (inactive)
same,GI50,[45],> 100 µM (inactive)
same,GI50,[46],> 100 µM (inactive)
same,GI50,[47],> 100 µM (inactive)
same,GI50,[48],> 100 µM (inactive)
CC(C)=C[C@@H]1C[C@H](n2cc(C)c(=O)[nH]c2=O)ON1CCO,GI50,[1],> 100 µM (inactive)
same,GI50,[2],> 100 µM (inactive)
same,GI50,[3],> 100 µM (inactive)
same,GI50,[4],> 100 µM (inactive)
same,GI50,[5],> 100 µM (inactive)
same,GI50,[49],> 100 µM (inactive)
same,GI50,[6],> 100 µM (inactive)
same,GI50,[7],> 100 µM (inactive)
same,GI50,[8],> 100 µM (inactive)
same,GI50,[50],> 100 µM (inactive)
same,GI50,[51],> 100 µM (inactive)
same,GI50,[9],> 100 µM (inactive)
same,GI50,[10],> 100 µM (inactive)
same,GI50,[11],> 100 µM (inactive)
same,GI50,[12],> 100 µM (inactive)
same,GI50,[52],> 100 µM (inactive)
same,GI50,[13],> 100 µM (inactive)
same,GI50,[14],> 100 µM (inactive)
same,GI50,[15],> 100 µM (inactive)
same,GI50,[16],> 100 µM (inactive)
same,GI50,[17],> 100 µM (inactive)
same,GI50,[18],> 100 µM (inactive)
same,GI50,[19],> 100 µM
same,GI50,[20],> 100 µM (inactive)
same,GI50,[21],> 100 µM (inactive)
same,GI50,[22],> 100 µM (inactive)
same,GI50,[23],> 100 µM (inactive)
same,GI50,[53],> 100 µM (inactive)
same,GI50,[54],> 100 µM (inactive)
same,GI50,[55],> 100 µM (inactive)
same,GI50,[24],> 100 µM (inactive)
same,GI50,[25],> 100 µM (inactive)
same,GI50,[26],> 100 µM (inactive)
same,GI50,[56],> 100 µM (inactive)
same,GI50,[27],> 100 µM (inactive)
same,GI50,[28],> 100 µM (inactive)
same,GI50,[29],> 100 µM (inactive)
same,GI50,[57],> 100 µM (inactive)
same,GI50,[58],> 100 µM (inactive)
same,GI50,[30],> 100 µM (inactive)
same,GI50,[31],> 100 µM (inactive)
same,GI50,[33],> 100 µM (inactive)
same,GI50,[34],> 100 µM (inactive)
same,GI50,[36],> 100 µM (inactive)
same,GI50,[37],> 100 µM (inactive)
same,GI50,[38],> 100 µM (inactive)
same,GI50,[39],> 100 µM (inactive)
same,GI50,[40],> 100 µM (inactive)
same,GI50,[41],3.08 µM (inactive)
same,GI50,[42],> 100 µM (inactive)
same,GI50,[43],> 100 µM (inactive)
same,GI50,[44],> 100 µM (inactive)
same,GI50,[45],> 100 µM (inactive)
same,GI50,[46],> 100 µM (inactive)
same,GI50,[47],> 100 µM (inactive)
same,GI50,[48],> 100 µM (inactive)
C=C(C)CC1=C(C(=S)NCCO[Si](C)(C)C(C)(C)C)C(OCC)(OCC)C1=O,GI50,[1],15.9 µM (inactive)
same,GI50,[2],9.66 µM (inactive)
same,GI50,[4],17.7 µM (inactive)
same,GI50,[49],15.5 µM (inactive)
same,GI50,[6],22.3 µM (inactive)
same,GI50,[7],24.8 µM (inactive)
same,GI50,[50],12.7 µM (inactive)
same,GI50,[51],19.3 µM (inactive)
same,GI50,[9],15.8 µM (inactive)
same,GI50,[10],16.6 µM (inactive)
same,GI50,[11],36.1 µM (inactive)
same,GI50,[12],16.1 µM (inactive)
same,GI50,[52],14.8 µM (inactive)
same,GI50,[13],> 100 µM (inactive)
same,GI50,[15],15.2 µM (inactive)
same,GI50,[16],17.6 µM (inactive)
same,GI50,[17],13.7 µM (inactive)
same,GI50,[18],14.7 µM (inactive)
same,GI50,[19],8.93 µM
same,GI50,[20],> 10 µM (inactive)
same,GI50,[21],16.9 µM (inactive)
same,GI50,[22],18.2 µM (inactive)
same,GI50,[23],13.6 µM (inactive)
same,GI50,[53],19.9 µM (inactive)
same,GI50,[54],> 100 µM (inactive)
same,GI50,[55],17.7 µM (inactive)
same,GI50,[24],16.7 µM (inactive)
same,GI50,[25],23 µM (inactive)
same,GI50,[26],18.3 µM (inactive)
same,GI50,[56],12.9 µM (inactive)
same,GI50,[27],9.59 µM (inactive)
same,GI50,[28],29.8 µM (inactive)
same,GI50,[57],17 µM (inactive)
same,GI50,[58],26.4 µM (inactive)
same,GI50,[30],21.7 µM (inactive)
same,GI50,[31],16.9 µM (inactive)
same,GI50,[33],18.2 µM (inactive)
same,GI50,[34],15.2 µM (inactive)
same,GI50,[35],16.9 µM (inactive)
same,GI50,[36],19.9 µM (inactive)
same,GI50,[37],40.6 µM (inactive)
same,GI50,[38],18 µM (inactive)
same,GI50,[39],17.9 µM (inactive)
same,GI50,[40],16.6 µM (inactive)
same,GI50,[41],> 100 µM (inactive)
same,GI50,[42],14 µM (inactive)
same,GI50,[43],18.5 µM (inactive)
same,GI50,[44],18.4 µM (inactive)
same,GI50,[45],19.1 µM (inactive)
same,GI50,[46],11.4 µM (inactive)
same,GI50,[47],19.7 µM (inactive)
same,GI50,[48],16.3 µM (inactive)
